Test results published in publication PMC6656724 (Communications Biology, 2019).
Where two headings read alike, the source gives them in different places.

Legend:
[1] = Mouse brain penetration study; type: in vivo, female C57BL6 mice
Description: Inhibitor 1 (and prodrugs 1a, 1b, 1c and 1d) was dosed as a bolus solution intravenously at 1 mg free base/kg (dose volume: 5 mL/kg; dose vehicle: 5% DMSO; 95% saline (inhibitor 1) or 5% DMSO; 40% PEG400; 55% MilliQ H2O (prodrugs 1a, 1b, 1c and 1d)) to female C57BL6 mice (n = 6). At 5 min and 60 min following intravenous bolus injection of test compound, mice (n = 3/timepoint) were placed under terminal anaesthesia with isofluorane. A blood sample was taken by cardiac puncture, the […] decapitated and the brain removed. Brain weight was noted and each brain homogenised with two volumes of methanol (2 mL/g brain). Each blood sample was diluted with distilled water (1:10). Diluted blood and the brain homogenates were then stored frozen until preparation and analysis by UPLC-MS/MS. For each mouse at each timepoint for 1, the concentration in brain (ng/g) was divided by the concentration in blood (ng/mL) to give a brain:blood ratio. The mean value obtained was quoted. For prodrugs 1a to 1d, only the concentration of 1 in blood (ng/mL) and brain (ng/g) was reported.
A rapid and sensitive ultra-performance chromatography/tandem mass spectrometry (UPLC-MS/MS) method was developed and validated for the determination of inhibitor 1 and prodrug 1b (rat only). Chromatographic analysis was conducted on a Waters Acquity™ UPLC system. Chromatographic separation was performed with an Acquity™ UPLC BEH C18 column (50 × 2.1 mm, 1.7 µm, 130Å; Waters Corp.) maintained at 40 °C in a column oven. The mobile phase consisted of water with 0.01% formic acid and ACN with 0.01 % formic acid and it was delivered at a flow rate of 0.6 mL/min under gradient eluent conditions within an analysis cycle time of 3 min. The mass detection was conducted on a Waters Xevo™ TQs mass spectrometer equipped with a ScanWave™ technology. Quantitation of the analyte was performed in electrospray positive ionisation mode (ESI^+) using multiple reaction monitoring. The optimised fragmentation transition was m/z = 270.17 → 196.19 (mouse) or m/z = 270.17 → 223.76 (rat) for inhibitor 1 and m/z = 297.83 → 195.74 for prodrug 1b (rat).
Sample extraction for blood and brain homogenate was by protein precipitation (1:3 or 1:6) using ACN containing suitable internal standard. Extracts were vortexed followed by centrifugation (2800 rpm for 10 min). An aliquot of each supernatant was then diluted two-fold in distilled water ready for analysis by UPLC-MS/MS.
The weighted 1/x^2 calibration line was linear in the dynamic range of 1–5000 ng/mL for inhibitor 1 and 1–1000 ng/mL for prodrug 1b with a correlation coefficient (r^2) > 0.99 (inhibitor 1) or 0.98 (prodrug 1b). The quality control samples (QC) were prepared by using the same spiking scheme as the calibration samples and up to four different target concentration brain levels: 2 ng/mL (LQC), 40 ng/mL (MQC), 100 ng/mL (HQC) and 2000 ng/mL. Data collection, peak integration and calculations were performed using MassLynx software, version 2.1.

in vitro = in vitro ADME, canine; settings: dog, MDCK
Description: (§1) internal standard at each timepoint. […]
(§2) including an analytical internal standard.
(§3) Apparent permeability (Papp) values were determined from the relationship: […]
(§4) Where V is the volume of each Transwell compartment (apical 125 µL, basolateral 600 µL), and concentrations are the relative MS responses for compound (normalized to internal standard) in the donor chamber before incubation and acceptor chamber at the end of the incubation. Area = area of cells exposed for drug transfer (0.33 cm 2).
(§5) Efflux ratios (Papp B>A / Papp A>B) were calculated for each compound from the […]
(§6) MDR1-MDCK cell line has been engineered to overexpress the efflux transporter, MDR1 (P-glycoprotein), and a finding of good permeability B>A, but poor […]
(§7) order to confirm the involvement of MDR1 in any efflux seen, an “ef fective efflux ratio” (EER) was calculated by comparing compound efflux ratios (ER) in the two cell types, i.e. EER = ER (MDR1-MDCK)/ ER (wild-type MDCK). This ratio illustrates the effect of the over-expressed MDR1 normalised for the background movement of compound through the wild-type cells.
(§8) Lucifer Yellow (LY) was added to the apical buffer in all wells to assess viability of the cell layer. As LY cannot freely permeate lipophilic barriers, a high degree of LY […]
(§9) validity of other wells on the plate.
(§10) Compound recovery from the wells was determined from MS responses (normalized to internal standard) in donor and acceptor chambers at the end of incubation compared to response in the donor chamber pre-incubation.

MDR1 (P-glycoprotein) = assay: in vitro; type: in vitro ADME, canine; settings: dog
Description: as §1, §2, §3, §4, §5, §6, §7, §8, §9, §10

Cc1cc2c(c(C)c1Cl)N(CC(=O)O)C(=O)CO2 [compound 1, (6-chloro-5,7-dimethyl-3-oxo-2,3-dihydro-4H-1,4-benzoxazin-4-yl) acetic acid]
concentration at 5 min ([1]; C57BL6, mouse, whole blood, iv, female C57BL/6 mice, 1 mg/kg i.v. bolus, 5 min, read-out: Level in the blood (mean)): 3780 ± 639 ng/mL
Brain penetrance (in words) ([1]; mouse, 1 mg/kg i.v.): Minimal brain penetrance
In brain ([1]; mouse, 1 mg/kg i.v., 60 min, single mice, analyte inhibitor 1 (also after prodrugs) or 1h): ≤ LLoQ
Papp A→B at 1 h, 10 µM (in vitro; pH 7.4, Papp A>B n=1, wild type MDCK): 16 ×10⁻⁶ cm/s
Papp A→B at 1 h, 10 µM (in vitro; pH 7.4, Papp A>B n=2, wild type MDCK): 11 ×10⁻⁶ cm/s
Papp B→A at 1 h, 10 µM (in vitro; pH 7.4, Papp B>A n=1, wild type MDCK): 2.6 ×10⁻⁶ cm/s
Papp B→A at 1 h, 10 µM (in vitro; pH 7.4, Papp B>A n=2, wild type MDCK): 2.3 ×10⁻⁶ cm/s
Papp A→B at 1 h, 10 µM (in vitro; pH 7.4, wild type MDCK, read-out: Papp A>B Mean): 13.5 ×10⁻⁶ cm/s
Papp B→A at 1 h, 10 µM (in vitro; pH 7.4, wild type MDCK, read-out: Papp B>A Mean): 2.45 ×10⁻⁶ cm/s
recovery at 1 h, 10 µM (in vitro; pH 7.4, wild type MDCK, read-out: Recovery A>B Mean): 93.5%
recovery at 1 h, 10 µM (in vitro; pH 7.4, wild type MDCK, read-out: Recovery A>B n=1): 100%
recovery at 1 h, 10 µM (in vitro; pH 7.4, wild type MDCK, read-out: Recovery A>B n=2): 87%
recovery at 1 h, 10 µM (in vitro; pH 7.4, wild type MDCK, read-out: Recovery B>A Mean): 108%
recovery at 1 h, 10 µM (in vitro; pH 7.4, wild type MDCK, read-out: Recovery B>A n=1): 108%
recovery at 1 h, 10 µM (in vitro; pH 7.4, wild type MDCK, read-out: Recovery B>A n=2): 109%
Papp A→B at 1 h, 10 µM (MDR1 (P-glycoprotein); MDCK-MDR1, pH 7.4, MDR1 MDCK, read-out: Papp A>B Mean): 16 ×10⁻⁶ cm/s
Papp B→A at 1 h, 10 µM (MDR1 (P-glycoprotein); MDCK-MDR1, pH 7.4, MDR1 MDCK, read-out: Papp B>A Mean): 2.1 ×10⁻⁶ cm/s
recovery at 1 h, 10 µM (MDR1 (P-glycoprotein); MDCK-MDR1, pH 7.4, MDR1 MDCK, read-out: Recovery A>B Mean): 99%
recovery at 1 h, 10 µM (MDR1 (P-glycoprotein); MDCK-MDR1, pH 7.4, MDR1 MDCK, read-out: Recovery A>B n=1): 107%
recovery at 1 h, 10 µM (MDR1 (P-glycoprotein); MDCK-MDR1, pH 7.4, MDR1 MDCK, read-out: Recovery A>B n=2): 91%
recovery at 1 h, 10 µM (MDR1 (P-glycoprotein); MDCK-MDR1, pH 7.4, MDR1 MDCK, read-out: Recovery B>A Mean): 84%
recovery at 1 h, 10 µM (MDR1 (P-glycoprotein); MDCK-MDR1, pH 7.4, MDR1 MDCK, read-out: Recovery B>A n=1): 62%
recovery at 1 h, 10 µM (MDR1 (P-glycoprotein); MDCK-MDR1, pH 7.4, MDR1 MDCK, read-out: Recovery B>A n=2): 106%
Papp A→B at 1 h, 10 µM (MDR1 (P-glycoprotein); MDCK-MDR1, pH 7.4, Papp A>B n=1, MDR1 MDCK): 18 ×10⁻⁶ cm/s
Papp A→B at 1 h, 10 µM (MDR1 (P-glycoprotein); MDCK-MDR1, pH 7.4, Papp A>B n=2, MDR1 MDCK): 14 ×10⁻⁶ cm/s
Papp B→A at 1 h, 10 µM (MDR1 (P-glycoprotein); MDCK-MDR1, pH 7.4, Papp B>A n=1, MDR1 MDCK): 1.8 ×10⁻⁶ cm/s
Papp B→A at 1 h, 10 µM (MDR1 (P-glycoprotein); MDCK-MDR1, pH 7.4, Papp B>A n=2, MDR1 MDCK): 2.4 ×10⁻⁶ cm/s
